± gives the expanded uncertainty stated by the source.
Legend:
[1] = relative permittivity at zero frequency (dimensionless); conditions: 298 K; 94.77 kPa; Liquid; Parallel plate capacitor
[2] = relative permittivity at zero frequency (dimensionless); xn = mol fraction of the nth substance listed; conditions: 298 K, 94.77 kPa, Liquid, Parallel plate capacitor

Compound: Cn1ccnc1 [1-methylimidazole]
- relative permittivity at zero frequency [1]: 39.78 ± 4.2

Compound: Cn1ccnc1 [1-methylimidazole] + O
- relative permittivity at zero frequency ([2]; x2 = 0): 39.78 ± 4.2
- relative permittivity at zero frequency ([2]; x2 = 0.1): 40.98 ± 4.3
- relative permittivity at zero frequency ([2]; x2 = 0.2): 42.55 ± 4.5
- relative permittivity at zero frequency ([2]; x2 = 0.3): 45.87 ± 4.9
- relative permittivity at zero frequency ([2]; x2 = 0.4): 46.02 ± 4.9
- relative permittivity at zero frequency ([2]; x2 = 0.5): 48.53 ± 5.2
- relative permittivity at zero frequency ([2]; x2 = 0.6): 50.04 ± 5.3
- relative permittivity at zero frequency ([2]; x2 = 0.7): 50.99 ± 5.4
- relative permittivity at zero frequency ([2]; x2 = 0.8): 52 ± 5.5
- relative permittivity at zero frequency ([2]; x2 = 0.9): 53.01 ± 7.5

Compound: O [water]
- relative permittivity at zero frequency [1]: 80 ± 8.5

Compound: O [water] + Cn1ccnc1
- relative permittivity at zero frequency ([2]; x1 = 1): 80 ± 8.5
